Assay [1] deals with antibodies in sera from SARS patients (sera 1a, 1b, 2, 6, 37, 62, London, SARS-yellow, SARS-green). The class given is binding, human. Also noted: Binding of serum 6 to linear peptides of protein X1 of SARS-CoV Urbani / Binding of serum 37 to linear peptides of protein X1 of SARS-CoV Urbani / Binding of serum 6 to looped/cyclic peptide (PEPSCAN-ELISA) / Binding of serum 37 to looped/cyclic peptide (PEPSCAN-ELISA) / Binding of serum 37 to looped/cyclic peptides of protein X1 of SARS-CoV Urbani / Binding of serum 6 to linear peptides of protein X2 / Binding of serum 37 to linear peptides of protein X2 / Binding of serum 37 to looped/cyclic peptides of protein X2 of SARS-CoV Urbani / Binding of serum 6 to linear peptides of protein M of SARS-CoV Urbani / Binding of serum 37 to linear peptides of protein M of SARS-CoV Urbani / Binding of serum 6 to looped/cyclic peptides of protein M of SARS-CoV Urbani / Binding of serum 37 to looped/cyclic peptides of protein M of SARS-CoV Urbani / Binding of serum 6 to linear peptides of protein X3 of SARS-CoV Urbani / Binding of serum 37 to linear peptides of protein X3 of SARS-CoV Urbani / Binding of serum 37 to looped/cyclic peptides of protein X3 of SARS-CoV Urbani / Binding of serum 6 to linear peptides of protein X4 of SARS-CoV Urbani / Binding of serum 37 to linear peptides of protein X4 of SARS-CoV Urbani / Binding of serum 37 to looped/cyclic peptides of protein X4 of SARS-CoV Urbani / Binding of serum 6 to linear peptides of protein X5 of SARS-CoV Urbani / Binding of serum 37 to linear peptides of protein X5 of SARS-CoV Urbani / Binding of serum 37 to looped/cyclic peptides of protein X5 of SARS-CoV Urbani / Binding of serum 6 to linear peptides of protein N of SARS-CoV Urbani / Binding of serum 37 to linear peptides of protein N of SARS-CoV Urbani / Binding of serum 6 to linear peptide (PEPSCAN-ELISA) / Binding of serum 1a to looped/cyclic peptides of protein N of SARS-CoV Urbani / Binding of serum 1b to looped/cyclic peptides of protein N of SARS-CoV Urbani / Binding of serum 2 to looped/cyclic peptides of protein N of SARS-CoV Urbani / Binding of serum 6 to looped/cyclic peptides of protein N of SARS-CoV Urbani / Binding of serum 37 to looped/cyclic peptides of protein N of SARS-CoV Urbani / Binding of serum 62 to looped/cyclic peptides of protein N of SARS-CoV Urbani / Binding of serum London to looped/cyclic peptides of protein N of SARS-CoV Urbani / Binding of serum SARS-green to looped/cyclic peptides of protein N of SARS-CoV Urbani: unit not given here.

Assay [2] relates to control sera (pooled serum of ten healthy LUMC hospital workers; commercial negative donor pooled serum from the Dutch bloodbank). The class given is binding, human. Also noted: Binding of Control serum LUMC to linear peptides / Binding of Control serum Blood-bank to linear peptides / Binding of Control serum LUMC to looped peptides / Binding of Control Serum Blood-Bank to Looped peptides / Binding of Control serum LUMC to linear peptides of the protein M of SARS-CoV Urbani / Binding of Control serum Blood-bank to linear peptides of the protein M of SARS-CoV Urbani / Binding of Control serum LUMC to looped peptides of the protein M of SARS-CoV Urbani / Binding of Control Serum Blood-Bank to Looped peptides of the protein M of SARS-CoV Urbani: unit not given here.

For assay [3], the system named is rabbit serum obtained by immunizing a rabbit with the SARS-CoV strain Frankfurt 1. The class given is binding. Details: Binding of a rabbit serum to linear peptides / Binding of a rabbit serum to looped peptides / Rabbit serum linear peptides / Rabbit serum looped peptides / Binding of a rabbit serum to linear peptides of protein N of SARS-CoV Urbani (Rabbit serum linear peptides) / Binding of a rabbit serum to looped/cyclic peptides of protein N of SARS-CoV Urbani (Rabbit serum looped peptides): unit not given here.

For the sequence ILFLTLIVFTSCELY, in assay [1], the “Binding of serum 1a to linear peptides of protein X4 of SARS-CoV Urbani” value stood at 0.7, the “Binding of serum 1a to looped/cyclic peptides of protein X4 of SARS-CoV Urbani” value is on record as 0.7, the “Binding of serum 1b to linear peptides of protein X4 of SARS-CoV Urbani” value turned out to be 0.6 and the “Binding of serum 1b to looped/cyclic peptides of protein X4 of SARS-CoV Urbani” value is 0.4. In assay [1], the “Binding of serum 2 to linear peptides of protein X4 of SARS-CoV Urbani” value is reported as 0.5, the “Binding of serum 2 to looped/cyclic peptides of protein X4 of SARS-CoV Urbani” value is on record as 0.7, the “Binding of serum 6 to linear peptides of protein X4 of SARS-CoV Urbani” value is 0.5 and the “Binding of serum 6 to looped/cyclic peptides of protein X4 of SARS-CoV Urbani” value came out at 0.6. Besides, in assay [1], the “Binding of serum 37 to linear peptides of protein X4 of SARS-CoV Urbani” value worked out at 0.7, the “Binding of serum 37 to looped/cyclic peptides of protein X4 of SARS-CoV Urbani” value was 0.7, the “Binding of serum 62 to linear peptides of protein X4 of SARS-CoV Urbani” value is on record as 0.7 and the “Binding of serum 62 to looped/cyclic peptides of protein X4 of SARS-CoV Urbani” value stood at 0.7. In assay [1], the “Binding of serum London to linear peptides of protein X4 of SARS-CoV Urbani” value is recorded as 0.6, the “Binding of serum London to looped/cyclic peptides of protein X4 of SARS-CoV Urbani” value came out at 0.3, the “Binding of serum SARS-green to linear peptides of protein X4 of SARS-CoV Urbani” value stood at 0.6 and the “Binding of serum SARS-green to looped/cyclic peptides of protein X4 of SARS-CoV Urbani” value is 0.4. Besides, in assay [1], the “Binding of serum SARS-yellow to linear peptides of protein X4 of SARS-CoV Urbani” value was found to be 0.4 and the “Binding of serum SARS-yellow to looped/cyclic peptides of protein X4 of SARS-CoV Urbani” value was found to be 0.6. Also, in assay [2], the “Binding of Control Serum Blood-Bank to Looped peptides” value turned out to be 0.7, the “Binding of Control serum Blood-bank to linear peptides” value is 0.6, the “Binding of Control serum LUMC to linear peptides” value is on record as 0.7 and the “Binding of Control serum LUMC to looped peptides” value is 0.8. Also, in assay [3], the “Rabbit serum linear peptides” value is reported as 0.7 and the “Rabbit serum looped peptides” value is 0.2.
For ILRIGTQVLKTMSLY, in assay [1], the “Binding of serum 1a to linear peptides of protein X2” value stood at 0.7, the “Binding of serum 1a to looped/cyclic peptides of protein X2 of SARS-CoV Urbani” value is given as 0.6, the “Binding of serum 1b to linear peptides of protein X2” value came out at 0.5 and the “Binding of serum 1b to looped/cyclic peptides of protein X2 of SARS-CoV Urbani” value was found to be 0.5. Also, in assay [1], the “Binding of serum 2 to linear peptides of protein X2” value is 0.4, the “Binding of serum 2 to looped/cyclic peptides of protein X2 of SARS-CoV Urbani” value amounted to 0.3, the “Binding of serum 6 to linear peptides of protein X2” value turned out to be 0.4 and the “Binding of serum 6 to looped/cyclic peptides of protein X2 of SARS-CoV Urbani” value is 0.5. In assay [1], the “Binding of serum 37 to linear peptides of protein X2” value was 0.6, the “Binding of serum 37 to looped/cyclic peptides of protein X2 of SARS-CoV Urbani” value came to 0.5, the “Binding of serum 62 to linear peptides of protein X2” value turned out to be 0.6 and the “Binding of serum 62 to looped/cyclic peptides of protein X2 of SARS-CoV Urbani” value is listed as 0.6. For the same sequence, in assay [1], the “Binding of serum London to linear peptides of protein X2” value amounted to 0.4, the “Binding of serum London to looped/cyclic peptides of protein X2 of SARS-CoV Urbani” value is reported as 0.3, the “Binding of serum SARS-green to linear peptides of protein X2” value was determined as 0.4 and the “Binding of serum SARS-green to looped/cyclic peptides of protein X2 of SARS-CoV Urbani” value was found to be 0.3. In assay [1], the “Binding of serum SARS-yellow to linear peptides of protein X2” value is 0.5 and the “Binding of serum SARS-yellow to looped/cyclic peptides of protein X2 of SARS-CoV Urbani” value turned out to be 0.6. Also, in assay [2], the “Binding of Control Serum Blood-Bank to Looped peptides” value was 0.7, the “Binding of Control serum Blood-bank to linear peptides” value came to 0.6, the “Binding of Control serum LUMC to linear peptides” value came to 0.4 and the “Binding of Control serum LUMC to looped peptides” value is given as 0.7. Moreover, in assay [3], the “Binding of a rabbit serum to linear peptides” value is 0.3 and the “Binding of a rabbit serum to looped peptides” value is 0.5.
For IMLLQFAYSNRNRFL, in assay [1], the “Binding of serum 1a to linear peptides of protein M of SARS-CoV Urbani” value amounted to 0.7, the “Binding of serum 1a to looped/cyclic peptides of protein M of SARS-CoV Urbani” value was determined as 0.6, the “Binding of serum 1b to linear peptides of protein M of SARS-CoV Urbani” value was determined as 0.5 and the “Binding of serum 1b to looped/cyclic peptides of protein M of SARS-CoV Urbani” value was determined as 0.4. Besides, in assay [1], the “Binding of serum 2 to linear peptides of protein M of SARS-CoV Urbani” value is 0.4, the “Binding of serum 2 to looped/cyclic peptides of protein M of SARS-CoV Urbani” value is given as 0.6, the “Binding of serum 6 to linear peptides of protein M of SARS-CoV Urbani” value worked out at 0.4 and the “Binding of serum 6 to looped/cyclic peptides of protein M of SARS-CoV Urbani” value is reported as 1.0. In assay [1], the “Binding of serum 37 to linear peptides of protein M of SARS-CoV Urbani” value was 0.4, the “Binding of serum 37 to looped/cyclic peptides of protein M of SARS-CoV Urbani” value is 0.6, the “Binding of serum 62 to linear peptides of protein M of SARS-CoV Urbani” value is recorded as 0.3 and the “Binding of serum 62 to looped/cyclic peptides of protein M of SARS-CoV Urbani” value amounted to 0.5. Moreover, in assay [1], the “Binding of serum London to linear peptides of protein M of SARS-CoV Urbani” value was 0.3, the “Binding of serum London to looped/cyclic peptides of protein M of SARS-CoV Urbani” value came out at 0.6, the “Binding of serum SARS-green to linear peptides of protein M of SARS-CoV Urbani” value stood at 0.4 and the “Binding of serum SARS-green to looped/cyclic peptides of protein M of SARS-CoV Urbani” value is listed as 0.3. Moreover, in assay [1], the “Binding of serum SARS-yellow to linear peptides of protein M of SARS-CoV Urbani” value is 0.2 and the “Binding of serum SARS-yellow to looped/cyclic peptides of protein M of SARS-CoV Urbani” value is 0.6. Moreover, in assay [2], the “Binding of Control Serum Blood-Bank to Looped peptides of the protein M of SARS-CoV Urbani” value was found to be 0.5, the “Binding of Control serum Blood-bank to linear peptides of the protein M of SARS-CoV Urbani” value was 0.5, the “Binding of Control serum LUMC to linear peptides of the protein M of SARS-CoV Urbani” value is given as 0.6 and the “Binding of Control serum LUMC to looped peptides of the protein M of SARS-CoV Urbani” value stood at 0.6. Further, in assay [3], the “Rabbit serum linear peptides” value is recorded as 0.2 and the “Rabbit serum looped peptides” value turned out to be 0.5.
Take INACRIIMRCWLCWK: in assay [1], the “Binding of serum 1a to looped/cyclic peptide (PEPSCAN-ELISA)” value came out at 0.6, the “Binding of serum 1b to looped/cyclic peptide (PEPSCAN-ELISA)” value is 0.4, the “Binding of serum 2 to looped/cyclic peptide (PEPSCAN-ELISA)” value is 0.6 and the “Binding of serum 6 to looped/cyclic peptide (PEPSCAN-ELISA)” value was 0.6. In assay [1], the “Binding of serum 37 to looped/cyclic peptide (PEPSCAN-ELISA)” value is reported as 0.5, the “Binding of serum 62 to looped/cyclic peptide (PEPSCAN-ELISA)” value worked out at 0.6, the “Binding of serum London to looped/cyclic peptide (PEPSCAN-ELISA)” value is 0.4 and the “Binding of serum SARS-green to looped/cyclic peptide (PEPSCAN-ELISA)” value is recorded as 0.3. For the same sequence, in assay [1], the “Binding of serum SARS-yellow to looped/cyclic peptide (PEPSCAN-ELISA)” value amounted to 0.5; the “Recognition of the peptide by sera of SARS-CoV infected individuals, and form (linear, looped/cyclic) in which it is recognized” value is reported as “recognized in linear form”. For the same sequence, in assay [2], the “Binding of Control Serum Blood-Bank to Looped peptides” value came to 0.7, the “Binding of Control serum Blood-bank to linear peptides” value is recorded as 0.9, the “Binding of Control serum LUMC to linear peptides” value is listed as 0.4 and the “Binding of Control serum LUMC to looped peptides” value was 0.6. In addition, the “Recognition of the peptide by the rabbit serum” value in assay [3] is “recognized”.

For the origin of these results see US20070128217A1 (priority 2003, published 2007).
